Measurements reported in US20250387354A1 (SpringWorks Therapeutics, Inc., priority 2024, published 2025).

Tested on: NF1-associated plexiform neurofibromas (PNs)
Assay: Phase 2b trial of mirdametinib: confirmed objective response by BICR volumetric MRI per REiNS criteria
Assay type: in vivo, human
Procedure: Study treatment was administered orally at a twice daily (BID) dose specified in the table below. Dosing was on a 28-day Cycle (4-week course) with a 3 week on/1 week off schedule. The treatment period will last for up to 24 Cycles followed by a 30-day Safety Follow-Up period.
A partial response was defined as PN decrease ≥20% compared to baseline using centrally read MRI volumetric analysis.
The major efficacy outcome measure was confirmed objective response rate (ORR), defined as the percentage of patients with complete response (disappearance of the target PN) or confirmed partial response ([…]). Responses were assessed by blinded independent central review (BICR) using volumetric magnetic resonance imaging (MRI) analysis per Response Evaluation in Neurofibromatosis and Schwannomatosis (REINS) criteria. A secondary efficacy objective was to determine the duration of response for patients who achieved a confirmed objective response.

SMILES: O=C(NOC[C@H](O)CO)c1ccc(F)c(F)c1Nc1ccc(I)cc1F (single isomer, unassigned) [mirdametinib]
- ORR also considering confirmed objective responses after cycle 24 (adults): 45%
- ORR also considering confirmed objective responses after cycle 24 (pediatric patients): 54%
